Assay results reported in patent US7253295B2, “Chloride channel opener” (Sucampo AG, priority 2001, dated 2007).
Values joined by “and” are separate entries in the source; they are usually repeats but may differ in a detail not shown here. Equal values may be shown once.

Assays:
[1] = test system: Chloride Ion Transport into Bile; assay: Chloride ion transport into bile in rats (Test Example 7); type: in vivo, male Wistar rats
Experimental: Compound 2 (13,14-dihydro-15-keto-16,16- difluoro-18(S)-methyl-prostaglandin E1) of 100 μg/kg was orally administered to male Wistar rats (six weeks old, weight:180-210 g) three times a day for seven days. The control group (n=7) received the same volume of vehicle (distilled water containing 0.01% polysorbate 80 and 0.5% ethanol). In the following morning of the final administration day (about 17 hours after the final administration), a polyethylene catheter (PE10, Becton Dickinson and Company) was inserted in the rats' choledoch under ether anesthesia. The rats were placed into Borrmann's cages and were left for 1 hour to awake from anesthesia. Bile discharged in one hour, from one to two hours after the insertion of the catheter, was collected and the concentration of chloride ion in the bile was measured with a chloride counter (CL-7, Hiranuma Sangyo Co., Ltd.). Student's t-test was used in the comparison of the control group and the group receiving Compound 2. P values less than 0.05 were considered to be statistically significant.

[2] = test system: 16HBE14o- cells; assay: Short-circuit current in 16HBE14o- cells (Test Example 2); type: cell-based, Human; details: 1 μM, 1% DMSO
Experimental: (§1) 16HBE14o- cells, a Human airway cell line derived from a healthy individual, which contain ClC-2 and the Cystic Fibrosis Transmembrane Regulator, Cl channel (CFTR); and CFBE41o- cells, a Human airway cell line derived from cystic fibrosis patients, which contain functional form of ClC-2 and defective form of CFTR (ΔF508 CFTR) were used. Both cells were cultured in MEM supplemented with 10% FBS (Hyclone), […] 1-glutamine and penicillin/streptomycin in flasks coated with fibronectin/collagen/BSA. When desired, the cells were plated on 0.3 cm^2 collagen-coated permeable filters (Biocoat). After 24 hrs, the apical medium was removed so that the cells were grown in air-water interface. While they were grown in air-water interface, the basolateral side of the cells was fed with the medium and the medium was changed every other day. The cells were allowed to grow to confluence.
Short-circuit current measurements were used to evaluate Cl transport in polarized, confluent cultures of the cells grown in air-water interface. A plexiglass chamber for short-circuit current measurements in confluent cell monolayers grown on the 0.3 cm^2 permeable support filters was used (World Precision Instruments, Sarasota, Fla.). Electrical measurements were made with a 7402C voltage clamp device (Bioengineering Department, Iowa University). The temperature was held constant at 37° C. by circulating heated water through the water jacket of the chamber. The output of the amplifier was plotted on an analog chart recorder. Changes in short-circuit current (Δlsc) after addition of test compounds were normalized to filter area (0.3 cm^2) and reported as ΔIsc/cm^2.
Short-circuit current measurements in the 16HBE14o- and CFBE41o- cells were carried out as described by Lofling et al. (Am J Physiol, 277(4 Pt 1):L700-8, 1999, the cited reference is herein incorporated by reference). […] Both solutions were bubbled with CO2/O2 (5%/95%), which also served to help mix the solutions. In all cases, the basolateral membrane was permeabilized with 200 μg/ml nystatin. […]

[3] = test system: T84 cells; assay: Short-circuit current in T84 cells (Test Example 5); type: cell-based, human; details: 50 nM
Experimental: T84 cells, a human intestinal cell line, derived form confluent monolayers with tight junctions were used. Said cell line has been widely used in studies of Cl^− transport using short-circuit current (Isc). These cells contain both CFTR and ClC-2.
T84 human intestinal epithelial cells were grown to confluence at pH 7.4 in 162-cm^2 flasks (Corning Costar, Mass.) with a 1:1 mixture of Dulbecco's modified Eagle's medium and Ham's F-12 nutrient mixture supplemented with 6% fetal bovine serum (FBS), 15 mM HEPES, 14.3 mM NaHCO^3, and antibiotics/antimycotic. Flasks were passaged weekly and fed every 3 days. Cell monolayers for experiments were grown to confluence on collagen-coated permeable support (Biocoat). Monolayers were fed every 3 days and used after stable transepithelia resistance was achieved, c.a. 7-14 days post-plating.
According to the same manner as described in Example 2, Short-circuit current measurements in T84 cells were carried out. Changes in short-circuit current (ΔIsc) were normalized to filter area (0.3 cm^2) and reported as ΔIsc/cm^2.
Compound 1 was used at a final concentration of 50 nM.

[4] = test system: Chloride Ion Transport into Intestinal Fluid; assay: Chloride ion transport into intestinal fluid of rats (Test Example 6); type: in vivo, male Wistar rats; details: for Chloride Ion Concentration in Intestinal Fluid, Mean ± S.E.: 30 minutes after administration
Experimental: Compound 1 (13,14-dihydro-15-keto-16,16-difluoro-prostaglandin E1) of 1, 10 or 100 μg/kg in the volume of 5 mL/kg was orally administered to male Wistar rats (six weeks old, weight:180-210 g) that had been fasted for at least 16 hours. The control group received the same volume of vehicle (distilled water containing 0.5% ethanol and 0.01% polysorbate 80). Thirty minutes after the administration, the animals were subjected to laparotomy under ether anesthesia. The top portion of the duodenum and the end portion of the ileum were ligated respectively, and the bowel was extirpated. The intestinal fluid of each animal was collected and centrifuged by 10,000×g for 5 minutes. Supernatant was collected, and the concentration of chloride ion in the supernatant of intestinal fluid was measured with a chloride counter (CL-7, Hiranuma Sangyo Co., Ltd.). Dunnett's test was used in the comparison of the control group and the groups receiving Compound 1 in each dose. P values less than 0.05 were considered to be statistically significant.

[5] = test system: Chloride Ion Transport into Lacrimal Fluid; assay: Chloride ion transport into lacrimal fluid in rabbits (Test Example 8); type: in vivo, male white rabbits
Experimental: Physiological saline, eye drops vehicle, or eye drops containing 0.0001% or 0.001% of Compound 1 was instilled to male white rabbits in the volume of 30 μL/eye. […] The collected lacrimal fluid was diluted five fold with distilled water, and the concentration of chloride ions was measured with a chloride counter (CL-7, Hiranuma Sangyo Co. Ltd.). Student's t-test and Wilcoxon's test were used in the comparison of the control group and the groups receiving Compound 1 in each dose. P values less than 0.05 were considered to be statistically significant.

[6] = test system: CFBE41o- cells; assay: Short-circuit current in CFBE41o- cells (Test Example 2); type: cell-based, Human; details: 1 μM, 1% DMSO
Experimental: as §1
Short-circuit current measurements were used to evaluate Cl transport in polarized, confluent cultures of the cells grown in air-water interface. A plexiglass chamber for short-circuit current measurements in confluent cell monolayers grown on the 0.3 cm^2 permeable support filters was used (World Precision Instruments, Sarasota, Fla.). Electrical measurements were made with a 7402C voltage clamp device (Bioengineering Department, Iowa University). […]

Compound: CC[C@H](C)CC(F)(F)C(=O)CC[C@H]1[C@H](O)CC(=O)[C@@H]1CCCCCCC(=O)O [Compound 2, 13,14-dihydro-15-keto-16,16-difluoro-18(S)-Methyl-PGE1]
- Effect on concentration of chloride ions in the bile (in words) ([1]; 100 μg/kg P.O. t.i.d. 7 days, compared with control group): increased significantly
- Chloride Ion Concentration in Bile, Mean ± S.E. ([1]; 100 μg/kg P.O., t.i.d. for 7 days, about 17 hours after final administration): 98.4 ± 1.8 mEq/L
- Short-Circuit Current (change) [2]: 11.6±1.3 μA/cm^2
- Short-Circuit Current (change) ([2]; listed as compound 2): 11.6 ± 1.3 μA/cm^2

Compound: CCCCC(F)(F)[C@@]1(O)CC[C@H]2[C@@H](CC(=O)[C@@H]2CCCCCCC(=O)O)O1 [Compound 1, (−)-7-[(2R,4aR,5R,7aR)-2-(1,1-difluoropentyl)-2-hydroxy-6-oxoperhydrocyclopenta[b]pyran-5-yl]heptanoic acid]
- Effect on Cl− transport in T84 cells (in words) [3]: activated Cl^− transport
- Changes in short-circuit currents (Δlsc) ([3]; T84 cells): 56.5 μA/cm^2
- Chloride Ion Concentration in Intestinal Fluid, Mean ± S.E. ([4]; 1 μg/kg P.O.): 82.2 ± 7.0 mEq/L
- Chloride Ion Concentration in Intestinal Fluid, Mean ± S.E. ([4]; 10 μg/kg P.O.): 110.1 ± 5.6 mEq/L
- Chloride Ion Concentration in Intestinal Fluid, Mean ± S.E. ([4]; 100 μg/kg P.O.): 126.6 ± 2.4 mEq/L
- Effect on concentration of chloride ions in the bowel (in words) ([4]; 1, 10 and 100 μg/kg P.O.): increased the concentration of chloride ions in the bowel in a dose-dependant manner
- Short-Circuit Current (change) [2]: 9.56±0.095 μA/cm^2 and 9.56 ± 0.95 μA/cm^2
- Effect on concentration of chloride ions in the lacrimal fluid (in words) ([5]; 0.0001% and 0.001% eye drops, compared with control group): increased the concentration of chloride ions in the lacrimal fluid in a dose-dependant manner
- Chloride Ion Concentration in lacrimal fluid, Mean ± S.E. ([5]; 0.0001% eye drops, 30 μL/eye, Pre (0 hour)): 136.7 ± 3.6 mEq/L
- Chloride Ion Concentration in lacrimal fluid, Mean ± S.E. ([5]; 0.0001% eye drops, 2 hr after instillation): 123.4 ± 5.2 mEq/L
- Chloride Ion Concentration in lacrimal fluid, Mean ± S.E. ([5]; 0.0001% eye drops, 4 hr after instillation): 136.8 ± 2.3 mEq/L
- Chloride Ion Concentration in lacrimal fluid, Mean ± S.E. ([5]; 0.0001% eye drops, 6 hr after instillation): 136.8 ± 2.0 mEq/L
- Chloride Ion Concentration in lacrimal fluid, Mean ± S.E. ([5]; 0.0001% eye drops, 8 hr after instillation): 140.8 ± 2.8 mEq/L
- Chloride Ion Concentration in lacrimal fluid, Mean ± S.E. ([5]; 0.001% eye drops, 30 μL/eye, Pre (0 hour)): 135.4 ± 4.0 mEq/L
- Chloride Ion Concentration in lacrimal fluid, Mean ± S.E. ([5]; 0.001% eye drops, 2 hr after instillation): 152.9 ± 7.7^[##] mEq/L
- Chloride Ion Concentration in lacrimal fluid, Mean ± S.E. ([5]; 0.001% eye drops, 4 hr after instillation): 151.4 ± 2.9 mEq/L
- Chloride Ion Concentration in lacrimal fluid, Mean ± S.E. ([5]; 0.001% eye drops, 6 hr after instillation): 138.9 ± 3.3 mEq/L
- Chloride Ion Concentration in lacrimal fluid, Mean ± S.E. ([5]; 0.001% eye drops, 8 hr after instillation): 138.8 ± 1.6 mEq/L
- Short-Circuit Current (change) [6]: 5.0±0.04 μA/cm^2 and 5.0 ± 0.4 μA/cm^2
